Laboratory results as given in patent US10702506B2, “Small molecule inhibitors of pendrin ion exchange and pharmaceutical compositions” (THE REGENTS OF THE UNIVERSITY OF CALIFORNIA, priority 2016, dated 2020).

Tests used:
mice (CD-1 and C57Bl/6) = assay: Acute furosemide diuresis model in mice; assay type: in vivo
Procedure: Pharmacokinetics measurements were done to guide studies of diuretic efficacy. Animal experiments were approved by UCSF Institutional Animal Care and Use Committee. Female CD1 mice (8-10 weeks) were injected with 10 mg/kg PDSinh-C01 (in saline containing 5% DMSO and 10% Kolliphor HS) ip and blood was collected by orbital puncture at 15, 30, 60, 150 and 240 min, and centrifuged at 5000 rpm for 15 min to separate plasma. Urine was collected in metabolic cages. An LC/MS method was developed to measure PDSinh-C01 concentrations in mouse blood and urine. Plasma and urine samples (60 μL) were mixed with 300-μL acetonitrile and centrifuged at 13000 rpm for 20 min, and 90 μL of the supernatant was taken for liquid chromatography/mass spectrometry (LC/MS; Waters 2695 and Micromass ZQ). […] Sodium and potassium concentrations in 3-h collected urine samples were measured by flame photometry (PFP7 Clinical Flame Photometer, Bibby Scientific Ltd, Stone. Staffs, UK). […] Blood gas was analyzed by iSTAT1 with CG4+ cartridges (Abbott Laboratories, Abbott Park, IL, USA). Urine pH was measured on freshly collected urine samples using an AB 15 pH Meter (Fisher Scientific, Pittsburgh, Pa., USA). Experiments with two groups were analyzed with Student's t-test, and experiments with 3 or more groups were analyzed using one-way analysis of variance and post-hoc Newman-Keuls multiple comparisons test. […]

[1] = system: HBE and CFBE cell cultures; assay: ASL pH by BCECF-dextran ratio imaging in HBE and CFBE cultures; assay type: cell-based, human; conditions: 25 μM, 4 hours
Procedure: To investigate the possible involvement of pendrin in ASL pH regulation, fluorescence ratio imaging was done of the ASL in HBE and CFBE cultures after staining with BCECF-dextran. In the absence of IL-13-treatment, ASL pH was ˜0.3 pH units more acidic in CFBE than HBE cultures (FIG. 5C; pH ˜7.4 vs. ˜7.1), in agreement with prior studies showing relative ASL acidity in CF.
ASL pH was measured using the pH-sensitive fluorophore BCECF conjugated to 10 kDa dextran (Invitrogen, Carlsbad, Calif.) as described, which was added 4-6 h prior to measurement (20 μl of 0.5 mg/ml in PBS). Cell inserts were incubated in HCO3^−-containing buffer (5% CO2 environment) and the ASL was imaged using a SMZ stereoscopic microscope (Nikon, Melville, N.Y.) equipped with a C9100 EM-CCD, Exfo XCite light source and BCECF filters (440/10X, 490/20X, 535/25M, Chroma, Bellows Falls, Vt.). In some experiments ASL pH was measured after PDSinh-A01 treatment, as described for ASL depth measurements. To relate BCECF fluorescence to pH, a calibration curve over the quasi-linear range of BCECF sensitivity was generated.

human SLC26A3 = molecular target: T1, human SLC26A3 (Homo sapiens, UniProt P40879); assay: SCN− transport YFP quenching assay in SLC26A3-expressing COS7 cells; assay type: cell-based; conditions: 25 μM, 30 min; 70 mM SCN− gradient
T1 construct: host or cells: COS7 fibroblasts, transient (Lipofectamine 2000), with EYFP-HIF
T1 sequence (P40879 1-764): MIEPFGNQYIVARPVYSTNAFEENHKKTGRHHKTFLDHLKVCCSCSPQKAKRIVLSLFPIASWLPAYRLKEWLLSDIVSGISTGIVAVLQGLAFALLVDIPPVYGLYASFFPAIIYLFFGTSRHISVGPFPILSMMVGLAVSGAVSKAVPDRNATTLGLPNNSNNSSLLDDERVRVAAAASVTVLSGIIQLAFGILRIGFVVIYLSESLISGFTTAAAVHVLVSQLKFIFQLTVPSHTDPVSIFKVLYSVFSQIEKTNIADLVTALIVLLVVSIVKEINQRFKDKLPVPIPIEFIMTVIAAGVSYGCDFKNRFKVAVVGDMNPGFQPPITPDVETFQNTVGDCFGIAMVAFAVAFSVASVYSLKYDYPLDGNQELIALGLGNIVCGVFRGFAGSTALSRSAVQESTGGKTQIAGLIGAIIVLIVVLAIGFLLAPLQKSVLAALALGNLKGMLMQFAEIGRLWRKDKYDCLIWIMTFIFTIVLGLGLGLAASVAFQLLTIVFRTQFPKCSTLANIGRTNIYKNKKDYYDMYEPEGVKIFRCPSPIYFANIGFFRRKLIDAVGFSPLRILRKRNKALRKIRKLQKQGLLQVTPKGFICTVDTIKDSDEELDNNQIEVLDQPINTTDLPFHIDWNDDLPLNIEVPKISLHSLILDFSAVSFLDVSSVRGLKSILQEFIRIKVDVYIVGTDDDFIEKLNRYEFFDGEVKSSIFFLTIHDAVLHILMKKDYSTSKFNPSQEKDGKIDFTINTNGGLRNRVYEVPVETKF
Procedure: SLC26A3 activity was measured using a SCN^− transport assay that produced YFP fluorescence quenching (FIG. 4B).
SLC26A3-mediated ion transport was measured in COS7 fibroblasts transiently transfected to express EYFP-HIF and human SLC26A3 (Origene, Rockville, Md.). COS7 cells were cultured in DMEM-H21 supplemented with 10% FBS, 2 mM glutamine, 100 U/ml penicillin and […] streptomycin and transfected using Lipofectamine 2000 (Invitrogen, Carlsbad, Calif.). SLC26A3-mediated transport was measured from EYFP-HIF fluorescence after addition of a NaSCN-substituted PBS solution to generate a 70 mM SCN^− gradient. Control experiments were done using COS-7 cells expressing EYFP-HIF alone.

For `Cc1n[nH]c(-c2cc(S(=O)(=O)NC3CCCc4ccccc43)c(C)s2)c1C` (centres unmarked) [PDSinh-C01], the “increase in urine volume” value (mice (CD-1 and C57Bl/6); 10 mg/kg ip with furosemide 5-50 mg/kg, 3 h urine) was ~30% and the “3-h urinary K+ excretion” value (mice (CD-1 and C57Bl/6); with furosemide) was “no significant effect”.
With `Cn1nc(COc2cccc(F)c2)c2c1CCN(C(=O)Nc1ccc(Cl)cc1)C2` [PDSinh-A01] the “effect on ASL pH, IL-13-treated cultures” value ([1]; IL-13-treated) was “did not alter ASL pH”, the “effect on ASL pH, basal conditions” value ([1]; no IL-13) was “did not alter ASL pH” and the “inhibition of SLC26A3 SCN− transport (YFP quenching)” value (human SLC26A3) was “not significantly inhibited”.
